Laboratory results taken from ChEMBL document CHEMBL1201862, “PubChem BioAssay data set” (2004).
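Growth conditions: 96-well plates. Treatment: test compound, 48 hours, 5 concentrations. Analysis: linear interpolation between bracketing concentrations; unreached endpoints set to highest concentration. GI50 = concentration required for 50% inhibition of growth.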 Activity calls are given as the source filed them. Rule as the data show it: active = GI50 up to about 1.1 µM and inactive = higher.

Key:
Test in all cases: growth of human tumour cells (NCI), 48 h
OVCAR-5 = system: OVCAR-5
HOP-62 = system: HOP-62
OVCAR-3 = system: OVCAR-3
NCI/ADR-RES = system: NCI/ADR-RES
MOLT-4 = system: MOLT-4
SNB-19 = system: SNB-19
UO-31 = system: UO-31
T47D = system: T47D
RPMI-8226 = system: RPMI-8226
SR = system: SR
M14 = system: M14
U-251 = system: U-251
EKVX = system: EKVX
OVCAR-8 = system: OVCAR-8
DU-145 = system: DU-145
IGROV-1 = system: IGROV-1
OVCAR-4 = system: OVCAR-4
NCI-H226 = system: NCI-H226
SK-MEL-5 = system: SK-MEL-5
UACC-257 = system: UACC-257
786-0 = system: 786-0
MCF7 = system: MCF7
MDA-MB-231 = system: MDA-MB-231
A498 = system: A498
NCI-H460 = system: NCI-H460
Hs-578T = system: Hs-578T
KM12 = system: KM12
RXF 393 = system: RXF 393
HT-29 = system: HT-29
SK-MEL-2 = system: SK-MEL-2
TK-10 = system: TK-10
SN12C = system: SN12C
Malme-3M = system: Malme-3M
SK-MEL-28 = system: SK-MEL-28
K562 = system: K562
COLO 205 = system: COLO 205
NCI-H522 = system: NCI-H522
HOP-92 = system: HOP-92
HCT-15 = system: HCT-15
MDA-N = system: MDA-N
PC-3 = system: PC-3
SK-OV-3 = system: SK-OV-3
LOX IMVI = system: LOX IMVI
HL-60 = system: HL-60
A549 = system: A549
MDA-MB-435 = system: MDA-MB-435
SF-295 = system: SF-295
NCI-H23 = system: NCI-H23
CAKI-1 = system: CAKI-1
SW-620 = system: SW-620
SF-268 = system: SF-268
HCT-116 = system: HCT-116
ACHN = system: ACHN
SNB-75 = system: SNB-75
UACC-62 = system: UACC-62
SF-539 = system: SF-539
HCC 2998 = system: HCC 2998
CCRF-CEM = system: CCRF-CEM

## COC(=O)C1CCC(=O)N1CN(C(C)=O)c1cc(OC)ccc1OC (centres undefined)
OVCAR-5
  GI50: > 100 µM (inactive)
HOP-62
  GI50: > 100 µM (inactive)
OVCAR-3
  GI50: > 100 µM (inactive)
NCI/ADR-RES
  GI50: > 100 µM (inactive)
MOLT-4
  GI50: > 100 µM (inactive)
SNB-19
  GI50: > 100 µM (inactive)
UO-31
  GI50: > 100 µM (inactive)
T47D
  GI50: > 100 µM (inactive)
RPMI-8226
  GI50: > 100 µM (inactive)
SR
  GI50: 16.9 µM (inactive)
M14
  GI50: > 100 µM (inactive)
U-251
  GI50: > 100 µM (inactive)
EKVX
  GI50: > 100 µM (inactive)
OVCAR-8
  GI50: > 100 µM (inactive)
DU-145
  GI50: > 100 µM (inactive)
IGROV-1
  GI50: > 100 µM (inactive)
OVCAR-4
  GI50: > 100 µM (inactive)
NCI-H226
  GI50: > 100 µM (inactive)
SK-MEL-5
  GI50: > 100 µM (inactive)
UACC-257
  GI50: > 100 µM (inactive)
786-0
  GI50: > 100 µM (inactive)
MCF7
  GI50: > 100 µM (inactive)
MDA-MB-231
  GI50: > 100 µM (inactive)
A498
  GI50: > 100 µM (inactive)
NCI-H460
  GI50: > 100 µM (inactive)
Hs-578T
  GI50: > 100 µM (inactive)
KM12
  GI50: > 100 µM (inactive)
RXF 393
  GI50: > 100 µM (inactive)
HT-29
  GI50: > 100 µM (inactive)
SK-MEL-2
  GI50: > 100 µM (inactive)
TK-10
  GI50: > 100 µM (inactive)
SN12C
  GI50: > 100 µM (inactive)
Malme-3M
  GI50: > 100 µM (inactive)
SK-MEL-28
  GI50: > 100 µM (inactive)
K562
  GI50: > 100 µM (inactive)
COLO 205
  GI50: > 100 µM (inactive)
NCI-H522
  GI50: > 100 µM (inactive)
HOP-92
  GI50: > 100 µM (inactive)
HCT-15
  GI50: > 100 µM
MDA-N
  GI50: > 100 µM (inactive)
PC-3
  GI50: > 100 µM (inactive)
SK-OV-3
  GI50: > 100 µM (inactive)
LOX IMVI
  GI50: > 100 µM (inactive)
HL-60
  GI50: > 100 µM (inactive)
A549
  GI50: > 100 µM (inactive)
MDA-MB-435
  GI50: > 100 µM (inactive)
SF-295
  GI50: > 100 µM (inactive)
NCI-H23
  GI50: > 100 µM (inactive)
CAKI-1
  GI50: > 100 µM (inactive)
SW-620
  GI50: > 100 µM (inactive)
SF-268
  GI50: > 100 µM (inactive)
HCT-116
  GI50: > 100 µM (inactive)
ACHN
  GI50: > 100 µM (inactive)
SNB-75
  GI50: > 100 µM (inactive)
UACC-62
  GI50: > 100 µM (inactive)
SF-539
  GI50: > 100 µM (inactive)

## Cc1cc(=O)oc2c(CNC(Cc3ccccc3)C(=O)O)c(O)ccc12 (centres undefined)
OVCAR-5
  GI50: > 100 µM (inactive)
HOP-62
  GI50: > 100 µM (inactive)
OVCAR-3
  GI50: > 100 µM (inactive)
NCI/ADR-RES
  GI50: > 100 µM (inactive)
MOLT-4
  GI50: > 100 µM (inactive)
SNB-19
  GI50: > 100 µM (inactive)
UO-31
  GI50: 73.3 µM (inactive)
T47D
  GI50: > 100 µM (inactive)
RPMI-8226
  GI50: > 100 µM (inactive)
SR
  GI50: > 100 µM (inactive)
M14
  GI50: > 100 µM (inactive)
U-251
  GI50: > 100 µM (inactive)
EKVX
  GI50: > 100 µM (inactive)
OVCAR-8
  GI50: > 100 µM (inactive)
DU-145
  GI50: > 100 µM (inactive)
IGROV-1
  GI50: > 100 µM (inactive)
OVCAR-4
  GI50: > 100 µM (inactive)
NCI-H226
  GI50: > 100 µM (inactive)
SK-MEL-5
  GI50: > 100 µM (inactive)
UACC-257
  GI50: > 100 µM (inactive)
786-0
  GI50: > 100 µM (inactive)
MCF7
  GI50: > 100 µM (inactive)
MDA-MB-231
  GI50: > 100 µM (inactive)
NCI-H460
  GI50: > 100 µM (inactive)
Hs-578T
  GI50: > 100 µM (inactive)
KM12
  GI50: > 100 µM (inactive)
RXF 393
  GI50: > 100 µM (inactive)
HT-29
  GI50: > 100 µM (inactive)
SK-MEL-2
  GI50: > 100 µM (inactive)
TK-10
  GI50: > 100 µM (inactive)
SN12C
  GI50: > 100 µM (inactive)
HCC 2998
  GI50: > 100 µM (inactive)
Malme-3M
  GI50: 61.5 µM (inactive)
SK-MEL-28
  GI50: > 100 µM (inactive)
K562
  GI50: > 100 µM (inactive)
COLO 205
  GI50: > 100 µM (inactive)
NCI-H522
  GI50: > 100 µM (inactive)
HOP-92
  GI50: > 100 µM (inactive)
HCT-15
  GI50: > 100 µM
MDA-N
  GI50: > 100 µM (inactive)
PC-3
  GI50: > 100 µM (inactive)
SK-OV-3
  GI50: > 100 µM (inactive)
LOX IMVI
  GI50: > 100 µM (inactive)
HL-60
  GI50: > 100 µM (inactive)
A549
  GI50: > 100 µM (inactive)
MDA-MB-435
  GI50: > 100 µM (inactive)
SF-295
  GI50: > 100 µM (inactive)
NCI-H23
  GI50: > 100 µM (inactive)
CAKI-1
  GI50: > 100 µM (inactive)
CCRF-CEM
  GI50: > 100 µM (inactive)
SW-620
  GI50: > 100 µM (inactive)
SF-268
  GI50: > 100 µM (inactive)
HCT-116
  GI50: > 100 µM (inactive)
ACHN
  GI50: > 100 µM (inactive)
SNB-75
  GI50: 82.2 µM (inactive)
UACC-62
  GI50: > 100 µM (inactive)
SF-539
  GI50: > 100 µM (inactive)

## Cc1ccc2c(c1)C(=O)C1(Cc3ccccc3C1=O)C2 (centres undefined)
OVCAR-5
  GI50: > 100 µM (inactive)
HOP-62
  GI50: 47 µM (inactive)
OVCAR-3
  GI50: > 100 µM (inactive)
NCI/ADR-RES
  GI50: > 100 µM (inactive)
MOLT-4
  GI50: > 100 µM (inactive)
SNB-19
  GI50: > 100 µM (inactive)
UO-31
  GI50: 1.86 µM (inactive)
T47D
  GI50: > 100 µM (inactive)
RPMI-8226
  GI50: > 100 µM (inactive)
SR
  GI50: > 100 µM (inactive)
M14
  GI50: > 100 µM (inactive)
U-251
  GI50: > 100 µM (inactive)
EKVX
  GI50: > 100 µM (inactive)
OVCAR-8
  GI50: > 100 µM (inactive)
DU-145
  GI50: > 100 µM (inactive)
IGROV-1
  GI50: > 100 µM (inactive)
OVCAR-4
  GI50: > 100 µM (inactive)
NCI-H226
  GI50: > 100 µM (inactive)
SK-MEL-5
  GI50: > 100 µM (inactive)
UACC-257
  GI50: > 100 µM (inactive)
786-0
  GI50: > 100 µM (inactive)
MCF7
  GI50: > 100 µM (inactive)
MDA-MB-231
  GI50: > 100 µM (inactive)
A498
  GI50: > 100 µM (inactive)
NCI-H460
  GI50: > 100 µM (inactive)
Hs-578T
  GI50: > 100 µM (inactive)
KM12
  GI50: > 100 µM (inactive)
RXF 393
  GI50: 47 µM (inactive)
HT-29
  GI50: > 100 µM (inactive)
TK-10
  GI50: > 100 µM (inactive)
SN12C
  GI50: > 100 µM (inactive)
HCC 2998
  GI50: > 100 µM (inactive)
Malme-3M
  GI50: > 100 µM (inactive)
SK-MEL-28
  GI50: > 100 µM (inactive)
K562
  GI50: > 100 µM (inactive)
COLO 205
  GI50: > 100 µM (inactive)
NCI-H522
  GI50: > 100 µM (inactive)
HOP-92
  GI50: 30.1 µM (inactive)
HCT-15
  GI50: > 100 µM
MDA-N
  GI50: > 100 µM (inactive)
PC-3
  GI50: > 100 µM (inactive)
SK-OV-3
  GI50: 31.2 µM (inactive)
LOX IMVI
  GI50: > 100 µM (inactive)
HL-60
  GI50: > 100 µM (inactive)
A549
  GI50: > 100 µM (inactive)
MDA-MB-435
  GI50: > 100 µM (inactive)
SF-295
  GI50: > 100 µM (inactive)
NCI-H23
  GI50: > 100 µM (inactive)
CCRF-CEM
  GI50: > 100 µM (inactive)
SW-620
  GI50: > 100 µM (inactive)
SF-268
  GI50: > 100 µM (inactive)
HCT-116
  GI50: > 100 µM (inactive)
ACHN
  GI50: > 100 µM (inactive)
SNB-75
  GI50: 67.1 µM (inactive)
UACC-62
  GI50: 28.9 µM (inactive)
SF-539
  GI50: > 100 µM (inactive)
